This passage reports TGI results from PubChem BioAssay (NCI).

Holding throughout (assay): growth of human tumour cells (NCI), 48 h
Assay [1] concerns HCT-15 colon.
In assay [2] the test system is IGROV1 ovarian.
For assay [3], the system named is KM12 colon.
The test system of assay [4] is LOX IMVI melanoma.
Assay [5] relates to NCI-H226 lung.
Assay [6] has as its system OVCAR-8 ovarian.
The subject of assay [7] is SW-620 colon.
The subject of assay [8] is UO-31 renal.

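Five compound concentrations were applied to cells in 96-well plates for 48 hours; endpoints were derived by simple linear interpolation of the resulting dose-response curve. Definition used: TGI = concentration required for complete inhibition of growth.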

As for `C=C1Oc2nc3ccccc3c(=O)n2C1(C)C`, the TGI was more than 100 µM in assay [1]; more than 100 µM in assay [2]; more than 10 µM in assay [3]; more than 100 µM in assay [4]; more than 100 µM in assay [5]; more than 100 µM in assay [6]. Moreover, the TGI in assay [7] and in assay [8] was more than 100 µM in each case.

Turning to `Cc1cc(NS(=O)(=O)c2ccc(NC(=O)c3cccc4c(Nc5ccc(S(=O)(=O)Nc6cc(C)on6)cc5)c5ccccc5nc34)cc2)no1`, the TGI is more than 100 µM in assay [1]; 76.5 µM in assay [2]; more than 100 µM in assay [3]; 87.5 µM in assay [4]; more than 100 µM in assay [6]; more than 100 µM in assay [7]. This compound displayed a TGI in assay [8] of more than 100 µM.

With `N#CCC(=O)N/N=C1\C(=O)N(c2ccc(Cl)cc2)C(=O)C(=O)C1c1nc2ccccc2o1` (centres undefined), the TGI in assay [1], in assay [2], in assay [3], in assay [5], in assay [6] and in assay [7] was more than 100 µM in each case. The TGI in assay [8] was more than 100 µM.

Consider `O=C(O)CCC1(Br)CCCCC(Br)C1=O` (centres undefined), for which the TGI in assay [1], in assay [2], in assay [5], in assay [6] and in assay [7] was more than 100 µM each time.

As for `CC(C)(C)[Si](C)(C)O/N=C\c1ccc(O[Si](C)(C)C(C)(C)C)cc1`, the TGI is more than 100 µM in assay [1]; more than 100 µM in assay [2]; more than 100 µM in assay [3]; 40.1 µM in assay [4]; more than 100 µM in assay [6]; more than 100 µM in assay [7]. In assay [8], this compound came in with a TGI of more than 100 µM.

In the case of `O=C(O)C1CCCCN1C(=O)c1ccccc1` (centres undefined), the TGI in assay [1], in assay [2], in assay [3], in assay [4], in assay [6] and in assay [7] was more than 100 µM in each case. This compound had a TGI in assay [8] of more than 100 µM.

`Clc1ccc(OC2CCO2)cc1Cl` (centres undefined): the TGI in assay [1] is 36.8 µM; in assay [2] it was more than 100 µM; in assay [3], more than 100 µM; in assay [5] it was more than 100 µM; in assay [6], more than 100 µM; in assay [7], 33.6 µM. This compound came in with a TGI in assay [8] of more than 100 µM.

Consider `CCN(CC)CCNC(=O)c1cccc2cc3ccccc3nc12`, for which the TGI in assay [1] was 32.5 µM; in assay [2], 60.7 µM; in assay [3], 36.6 µM; in assay [4] it was 19.2 µM; in assay [5], 15.9 µM; in assay [6] it was more than 100 µM. Also, the TGI in assay [7] was more than 100 µM; in assay [8], 22.1 µM.

For the compound `O=c1c2ccccc2c(=O)c2c1cc(Cl)c1[nH]c3c([nH]c12)c(Cl)cc1c(=O)c2ccccc2c(=O)c13`, the TGI in assay [1], in assay [2], in assay [3], in assay [5], in assay [6] and in assay [7] was more than 100 µM each time. The compound further came in with a TGI in assay [8] of more than 100 µM.

Consider `C/C(=N/NC(=O)C(N)=O)C(CC(C(=O)Nc1ccccc1C)/C(C)=N\NC(=O)C(N)=O)C(=O)Nc1ccccc1C` (centres undefined), for which the TGI in assay [2], in assay [3], in assay [4], in assay [5], in assay [6] and in assay [7] was more than 100 µM each time. Also, in assay [8], the TGI was more than 100 µM.

As to `O=C(O)C1c2ccccc2C(C(=O)O)c2ccccc21` (centres undefined), the TGI in assay [1], in assay [2], in assay [3], in assay [4], in assay [6] and in assay [7] was more than 100 µM throughout. In assay [8], this compound displayed a TGI of more than 100 µM.

Consider `CN(c1ccccc1)C1C(=O)N(c2ccccc2)C1/C=C/c1ccccc1` (centres undefined), for which the TGI in assay [2], in assay [3], in assay [5], in assay [6], in assay [7] and in assay [8] was more than 100 µM in each case.

Consider `Cc1cc(C(=O)N2CCN(Cc3ccccc3)CC2)c(C)o1`, for which the TGI in assay [1], in assay [2], in assay [3], in assay [4], in assay [6] and in assay [7] was more than 100 µM throughout. In assay [8], this compound displayed a TGI of more than 100 µM.

As for `C[C@H]1CC(=O)C2=CCCC3(SCCCS3)[C@@H]2[C@H]1CO`, the TGI in assay [2], in assay [3], in assay [4], in assay [5], in assay [6] and in assay [7] was more than 100 µM throughout. For the same compound, in assay [8], the TGI was more than 100 µM.

For `O=C(O)C#CCO`, the TGI in assay [1], in assay [2], in assay [3], in assay [4], in assay [6] and in assay [7] was more than 100 µM in each case. In addition, the TGI in assay [8] is more than 100 µM.
